Source: patent US11389456B2, “Compounds and methods for treating oxalate-related diseases” (OxaluRx, Inc., priority 2018, dated 2022)
In brackets after ≈: the same amount, converted by molar mass. Where two headings read alike, the source gives them in different places.

What was measured:
[1] = biological target: recombinant full-length human hydroxyacid oxidase 1 (HAO1), the equivalent of hGOX (Homo sapiens (Human), UniProt Q9UJM8); assay: In-vitro human glycolate oxidase (hGOX) assay (Amplex red/HRP fluorescence); type: biochemical
Sequence of recombinant full-length human hydroxyacid oxidase 1 (HAO1), the equivalent of hGOX (Q9UJM8 whole entry): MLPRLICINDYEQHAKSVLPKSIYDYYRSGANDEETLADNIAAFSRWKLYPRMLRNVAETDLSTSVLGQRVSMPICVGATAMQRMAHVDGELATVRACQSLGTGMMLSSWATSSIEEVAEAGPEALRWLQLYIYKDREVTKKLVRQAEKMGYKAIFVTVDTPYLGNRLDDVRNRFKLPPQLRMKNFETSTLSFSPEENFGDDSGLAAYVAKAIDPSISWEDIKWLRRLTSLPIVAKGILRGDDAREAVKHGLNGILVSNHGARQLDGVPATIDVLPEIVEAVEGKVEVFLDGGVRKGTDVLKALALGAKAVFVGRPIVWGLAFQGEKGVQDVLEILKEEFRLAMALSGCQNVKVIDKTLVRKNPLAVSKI
Protocol: Biological Activity Assay: In-Vitro Human Glycolate Oxidase (hGOX) Assay
The in-vitro glycolate oxidase assay was performed using recombinant full-length human hydroxyacid oxidase 1 (HAO1), the equivalent of hGOX. […] Purified HAO1 was dissolved in assay buffer consisting of 10 mM NaCl, 110 mM KCl, 2 mM MgCl2, 50 mM HEPES (pH 7.4) and 0.01% Triton™ X-100.

[2] = biological target: glycolate oxidase (GOX) in HepaRG-CAR cells (Homo sapiens (Human), UniProt Q9UJM8); assay: HepaRG-CAR cell-based assay for quantitation of glycolate oxidase inhibition (cellular glycolate flux, GC-MS)
Sequence of glycolate oxidase (GOX) in HepaRG-CAR cells (Q9UJM8 whole entry): as above

[3] = Solubility in phosphate buffered saline (PBS), pH 7.4; type: physicochemical; conditions: phosphate buffer (PBS), aqueous buffer, kinetic from dmso stock; phosphate buffered saline pH 7.4, 1% DMSO, 1 hour shaking at room temperature
In short: (§1)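 DMSO stock (10 mM) diluted into 100 mM phosphate buffer pH 7.4, or into deionized distilled water for the aqueous assay, at 1% final DMSO and shaken 1 h at room temperature. After centrifugation, supernatants quantified by LC-MS/MS against a calibration curve with internal standard.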

[4] = Solubility in aqueous solution (deionized, distilled water); type: physicochemical; conditions: kinetic from dmso stock, 1% DMSO, read-out: Aqueous Solubility H2O
In short: as §1

[5] = Metabolic stability in human liver microsomal preparation; type: in vitro ADME; conditions: pH 7.4, human liver microsomes, NADPH, 37° C.; for half-life at 1 μM: 0-45 min, read-out: Metabolic Stability t1/2
In short: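 Compound at 1.5 μM with 0.75 mg/mL human liver microsomes (concentrations before NADPH addition) in 0.1 M potassium phosphate, 1 mM EDTA, pH 7.4 was preincubated 5 min at 37 °C, then started with NADPH. Samples at 0, 5, 15, 30 and 45 min were quenched with acetonitrile/internal standard and analysed by LC/MS.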

[6] = Stability in human plasma; type: in vitro ADME; conditions: read-out: Plasma Stability T1/2
In short: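 Pooled human plasma (pH 7.4-8) at 37° C, test compound spiked from a 0.02 mM solution in phosphate buffer with 0.5% BSA. Samples taken at 0, 5, 15, 30, 45 and 60 min, quenched with acetonitrile containing internal standard, and remaining compound measured by LC/MS.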

[7] = Protein binding (plasma equilibrium dialysis); type: in vitro ADME; conditions: 5 hours at 37° C.; for fraction unbound at 5 h, 1 μM: read-out: Protein Binding Fraction Bound (converted)
In short: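 Compound spiked into plasma at 1 μM final (0.2% DMSO) and dialysed against phosphate buffer for 5 hours at 37 °C with shaking. Donor and receiver samples, matrix-matched and acetonitrile-quenched with internal standard, quantified by LC/MS/MS alongside 0-hour plasma samples.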

[8] = HepaRG-CAR cells, 500 μM glycolate, 48 hours incubation, read-out: IC50

SMILES | IC50 [1] [nM] | IC50 [2, 8] [nM] | solubility at 1 h [3] [µM] | solubility at 1 h [4] [µM] | CLint scaled at 1 μM [5] [mL/min/kg] | half-life at 1 μM [5] [h] | half-life at 2 μM [6] [h] | recovery at 5 h, 1 μM [7] [%] | fraction unbound at 5 h, 1 μM [7] | IC50 [2] [nM]
O=C(O)c1nn[nH]c1Oc1cncc(-c2ccccc2)c1 [Example I-262, 5-((5-Phenylpyridin-3-yl)oxy)-1H-1,2,3-triazole-4-carboxylic acid] | 191 | > 10000 | 97.2 (≈ 27.4 µg/mL) | 94.2 (≈ 26.6 µg/mL) | < 0.15 | > 83.3 | 1.63 | 120 | 0.009 | –
CS(=O)(=O)c1ccc(-c2cccc(Oc3[nH]nnc3C(=O)O)c2)cc1 [Example I-257, 5-((4′-(Methylsulfonyl)-[1,1′-biphenyl]-3-yl)oxy)-1H-1,2,3-triazole-4-carboxylic acid] | 13 | 2500 | 91.8 (≈ 33 µg/mL) | 89.8 (≈ 32.3 µg/mL) | 1.53 | 19 | 3.04 | 102 | 0.022 | –
O=C(O)c1nn[nH]c1Oc1ccc(-c2ccc(F)cc2)cc1 [Example I-160, 5-((4′-Fluoro-[1,1′-biphenyl]-4-yl)oxy)-1H-1,2,3-triazole-4-carboxylic acid] | 12 | 2500 | 101 (≈ 30.3 µg/mL) | 64.6 (≈ 19.3 µg/mL) | 6.99 | 4.14 | 2.88 | 93.6 | – | –
O=C(O)c1nn[nH]c1Oc1ccc(-c2ccc(Br)cc2)cc1 [Example I-154, 5-((4′-Bromo-[1,1′-biphenyl]-4-yl)oxy)-1H-1,2,3-triazole-4-carboxylic acid] | 5 | > 10000 | 93.7 (≈ 33.7 µg/mL) | 29.1 (≈ 10.5 µg/mL) | < 0.15 | > 83.3 | 1.85 | 98.5 | – | –
O=C(O)c1nn[nH]c1Oc1cccc(-c2cccnc2)c1 [Example I-259, 5-(3-(Pyridin-3-yl)phenoxy)-1H-1,2,3-triazole-4-carboxylic acid] | 18 | 2000 | 93.1 (≈ 26.3 µg/mL) | 96.1 (≈ 27.1 µg/mL) | 0.45 | 64.3 | 1.33 | 105 | 0.221 | –
O=C(O)c1nn[nH]c1Oc1cccc(-c2ccccc2)c1 [Example I-249, 5-([1,1′-Biphenyl]-3-yloxy)-1H-1,2,3-triazole-4-carboxylic acid] | 19 | 2000 | 103 (≈ 29.1 µg/mL) | 108 (≈ 30.2 µg/mL) | 5 | 5.79 | 3.71 | 99.2 | – | –
COc1ccc(-c2cccc(Oc3[nH]nnc3C(=O)O)c2)cc1 [Example I-250, 5-((4′-Methoxy-[1,1′-biphenyl]-3-yl)oxy)-1H-1,2,3-triazole-4-carboxylic acid] | 25 | – | 110 (≈ 34.1 µg/mL) | 99.4 (≈ 30.9 µg/mL) | 8.95 | 3.24 | 2.43 | 98.8 | 0.089 | > 5000
O=C(O)c1nn[nH]c1Oc1ccc2ccccc2c1 [Example I-058, 5-(Naphthalen-2-yloxy)-1H-1,2,3-triazole-4-carboxylic acid] | 50 | 2000 | 90.8 (≈ 23.2 µg/mL) | 81.5 (≈ 20.8 µg/mL) | 2.1 | 13.8 | 0.852 | 101 | – | –
O=C(O)c1nn[nH]c1Oc1cccc(-c2ccc(Cl)cc2)c1 [Example I-252, 5-((4′-Chloro-[1,1′-biphenyl]-3-yl)oxy)-1H-1,2,3-triazole-4-carboxylic acid] | 13 | 2000 | 104 (≈ 32.8 µg/mL) | 98 (≈ 30.9 µg/mL) | 7.66 | 3.78 | 5.02 | 97.1 | – | –
O=C(O)c1[nH]nnc1Oc1ccc(-c2ccc(Cl)c(Cl)c2)cc1 [Example I-171, 5-((3′,4′-Dichloro-[1,1′-biphenyl]-4-yl)oxy)-1H-1,2,3-triazole-4-carboxylic acid] | 10 | > 10000 | 96.3 (≈ 33.7 µg/mL) | 45.8 (≈ 16 µg/mL) | 14.4 | 2.01 | 1.93 | 87.5 | – | –
Cc1cc(Oc2[nH]nnc2C(=O)O)ccc1Br [Example I-037, 5-(4-Bromo-3-methylphenoxy)-1H-1,2,3-triazole-4-carboxylic acid] | 34 | 400 | 96.8 (≈ 28.9 µg/mL) | 96.1 (≈ 28.6 µg/mL) | < 0.15 | > 83.3 | 0.786 | 105 | – | –
O=C(O)c1nn[nH]c1Oc1cccc(-c2ccc(Cl)c(Cl)c2)c1 [Example I-255, 5-((3′,4′-Dichloro-[1,1′-biphenyl]-3-yl)oxy)-1H-1,2,3-triazole-4-carboxylic acid] | 6 | 5000 | 97.1 (≈ 34 µg/mL) | 81 (≈ 28.3 µg/mL) | < 0.15 | > 83.3 | 3.35 | 102 | – | –
Cc1ccc(-c2cccc(Oc3[nH]nnc3C(=O)O)c2)cc1 [Example I-251, 5-((4′-Methyl-[1,1′-biphenyl]-3-yl)oxy)-1H-1,2,3-triazole-4-carboxylic acid] | 13 | 2500 | 108 (≈ 31.9 µg/mL) | 101 (≈ 29.8 µg/mL) | 17.7 | 1.64 | 4.87 | 98.2 | – | –
O=C(O)c1nn[nH]c1Oc1ccc(-c2ccccc2F)cc1 [Example I-174, 5-((2′-Fluoro-[1,1′-biphenyl]-4-yl)oxy)-1H-1,2,3-triazole-4-carboxylic acid] | 27 | 3000 | 89.8 (≈ 26.9 µg/mL) | 70.3 (≈ 21.1 µg/mL) | 2.48 | 11.7 | 1.17 | 99.9 | – | –
COc1cccc(-c2ccc(Oc3[nH]nnc3C(=O)O)cc2)c1 [Example I-158, 5-((3′-Methoxy-[1,1′-biphenyl]-4-yl)oxy)-1H-1,2,3-triazole-4-carboxylic acid] | 8 | – | 106 (≈ 33 µg/mL) | 101 (≈ 31.4 µg/mL) | < 0.15 | > 83.3 | 4.77 | 92.5 | – | 5000
O=C(O)c1nn[nH]c1Oc1cccc(-c2ccccc2F)c1 [Example I-254, 5-((2′-Fluoro-[1,1′-biphenyl]-3-yl)oxy)-1H-1,2,3-triazole-4-carboxylic acid] | 17 | 2500 | 114 (≈ 34.1 µg/mL) | 106 (≈ 31.7 µg/mL) | 3.82 | 7.58 | 2.51 | 94.4 | – | –
O=C(O)c1nn[nH]c1Oc1cncc(-c2cccnc2)c1 [Example I-264, 5-([3,3′-Bipyridin]-5-yloxy)-1H-1,2,3-triazole-4-carboxylic acid] | 380 | > 10000 | 108 (≈ 30.4 µg/mL) | 105 (≈ 29.7 µg/mL) | 0.17 | 173 | 1.72 | 123 | – | –
O=C(O)c1nn[nH]c1Oc1cccc(-c2cccc(Cl)c2)c1 [Example I-253, 5-((3′-Chloro-[1,1′-biphenyl]-3-yl)oxy)-1H-1,2,3-triazole-4-carboxylic acid] | 9 | 2500 | 102 (≈ 32.2 µg/mL) | 91.7 (≈ 29 µg/mL) | 5.51 | 5.26 | 1.78 | 112 | – | –
N#Cc1cccc(-c2ccc(Oc3[nH]nnc3C(=O)O)cc2)c1 [Example I-256, 5-((3′-Cyano-[1,1′-biphenyl]-4-yl)oxy)-1H-1,2,3-triazole-4-carboxylic acid] | 22 | – | 90.5 (≈ 27.7 µg/mL) | 86.9 (≈ 26.6 µg/mL) | 0.4 | 71.6 | 8.52 | 113 | – | 10000
Cc1cc(Oc2[nH]nnc2C(=O)O)ccc1Cl [Example I-258, 5-(4-Chloro-3-methylphenoxy)-1H-1,2,3-triazole-4-carboxylic acid] | 44 | 300 | 95.8 (≈ 24.3 µg/mL) | 93.5 (≈ 23.7 µg/mL) | < 0.15 | > 83.3 | 1.05 | 110 | – | –
